Experiments:
[1] = tested on: DU-145 prostate cancer cell line; test: Cell growth inhibition assay, DU-145 (CellTiter-Glo); assay type: cell-based; details: Homo sapiens; DU-145, 3,000 cells/well, 96 hours
Experimental: (§1) The inhibitory effects of the compounds of the present invention against the growth of cancer cells were evaluated as shown below. The cancer cell lines including prostate cancer cell lines (LNCaP, DU-145), stomach cancer cell line (NCI-N87), and breast cancer cell lines (MDA-MB-468) were cultured under the protocol provided by each supplier. A medium supplemented with 10 ng/mL of IL-6 was used for LNCaP, a prostate cancer cell line, when treated with a drug. Each type of cells to be used in experiments was sub-cultured in a 96-well plate by counting the exact number of cells using Tali™ Image-based Cytometer (Life Technologies). In a 96-well plate, DU-145 was employed with 3,000 cells/well; NCI-N87 was employed with 5,000 cells/well; and LNCaP and MDA-MB-468 were employed with 10,000 cells/well. The cells were treated with the compounds listed in Examples which were diluted in various concentrations. Upon completion of the compounds treatment, LNCaP, DU-145, NCI-N87 cells were cultured at 37° C. under 5% CO2 for 96 hours, and MDA-MB-468 cells were cultured at 37° C. in air for 96 hours. Subsequently, the cells were observed under microscope and drug precipitation and particular findings were investigated and recorded. And then, the 96-well plate was placed at room temperature for 30 minutes, added with 20 pt/well of CellTiter-Glo solution (Cat No. G7573, Promega) and shaken for 10 minutes, followed by being subjected to the measurement using PHERAstar™ microplate reader (BMG LABTECH) according to the supplier's general luminometer protocol. Wells where only culture liquid added without cell plating were used as a negative control, whereas wells where culture liquid containing 0.1% DMSO instead of the compounds listed in Examples were used as a positive control.

[2] = tested on: LNCaP prostate cancer cell line; test: Cell growth inhibition assay, LNCaP (CellTiter-Glo); assay type: cell-based; details: Homo sapiens; LNCaP, 10,000 cells/well, medium with 10 ng/mL IL-6, 96 hours
Experimental: as §1

STAT3 = STAT3 reporter gene assay (luciferase), LNCaP stable cell line pSTAT3-TA-luc, IL-6 stimulation; assay type: cell-based, human; details: Homo sapiens
Outline: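 LNCaP cells stably carrying pSTAT3-TA-luc were plated 24 h in 3% DCC-FBS medium, then given compound followed by IL-6 (10 ng/mL final) for 24 h at 37 °C. Luciferase was read from lysates, with CellTiter-Glo viability on a duplicate plate. Stimulated 0.1% DMSO wells served as uninhibited control.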

STAT1 = STAT1 reporter gene assay (luciferase), U2OS stable cell line pGL4-STAT1-TA-luc, IFN-γ stimulation; assay type: cell-based, human; details: Homo sapiens, IFN-γ 50 ng/mL, 8 hours, read-out: IC50 (μM) pSTAT1
Outline: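 U2OS cells stably carrying a STAT1-driven luciferase reporter were treated with serially diluted compounds plus IFN-γ (50 ng/mL final) for 8 h at 37 °C in 10% FBS medium. Luciferase read after lysis; parallel plate assessed for cytotoxicity by CellTiter-Glo.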

[3] = tested on: NCI-N87 stomach cancer cell line; test: Cell growth inhibition assay, NCI-N87 (CellTiter-Glo); assay type: cell-based; details: Homo sapiens; NCI-N87, 5,000 cells/well, 96 hours
Experimental: as §1

Row | SMILES | IC50 [1] | IC50 [2] | IC50 (STAT3) | IC50 (STAT1) | IC50 [3]
1 | COc1ccc(C(C)(C)c2cc(Cl)cc(NC(=O)c3cc4cc(C(C)(C)S(C)(=O)=O)ccc4s3)c2)cc1 [Example 17, N-(3-chloro-5-(2-(4-methoxyphenyl)propan-2-yl)phenyl)-5-(2-(methylsulfonyl)propan-2-yl)benzo[b]thiophene-2-carboxamide] | 0.039 µM | 0.08 µM | 0.045 µM | > 50 µM | 
2 | COc1cc(NC(=O)c2cc3cc(C(C)(C)S(C)(=O)=O)ccc3s2)cc(Oc2ccc(Cl)cc2)c1 [Example 46, N-(3-(4-chlorophenoxy)-5-methoxyphenyl)-5-(2-(methylsulfonyl)propan-2-yl)benzo[b]thiophene-2-carboxamide] | 0.07 µM | 0.11 µM | 0.054 µM | > 50 µM | 
3 | O=C(Nc1cc(Cl)cc(Oc2ccc(Cl)cc2)c1)c1cc2cc(CS(=O)(=O)C(F)(F)F)ccc2s1 [Example 42, N-(3-chloro-5-(4-chlorophenoxy)phenyl)-5-(((trifluoromethyl)sulfonyl)methyl)benzo[b]thiophene-2-carboxamide] | > 1.1 µM | > 1.1 µM | 1.25 µM | > 50 µM | 
4 | CC1(C)CC(Oc2cc(Cl)cc(NC(=O)c3cc4cc(C(C)(C)S(C)(=O)=O)ccc4s3)c2)CC(C)(C)N1 [Example 92, N-(3-chloro-5-((2,2,6,6-tetramethylpiperidin-4-yl)oxy)phenyl)-5-(2-(methylsulfonyl)propan-2-yl)benzo[b]thiophene-2-carboxamide] | > 1.1 µM | > 1.1 µM | 5.5 µM | 9.6 µM | 
5 | CC(C)(c1ccc(Cl)cc1)c1cc(NC(=O)c2cc3cc(C(C)(C)S(C)(=O)=O)ccc3s2)[nH]n1 [Example 89, N-(3-(2-(4-chlorophenyl)propan-2-yl)-1H-pyrazol-5-yl)-5-(2-(methylsulfonyl)propan-2-yl)benzo[b]thiophene-2-carboxamide] | 0.11 µM | 0.24 µM | 0.14 µM | > 50 µM | 
6 | CC(C)(c1ccc2sc(C(=O)Nc3cc(Cl)cc(Oc4ccc(F)c(F)c4)c3)cc2c1)S(C)(=O)=O [Example 52, N-(3-chloro-5-(3,4-difluorophenoxy)phenyl)-5-(2-(methylsulfonyl)propan-2-yl)benzo[b]thiophene-2-carboxamide] | 0.015 µM | 0.022 µM | 0.025 µM | > 50 µM | 
7 | CC(C)(c1ccc2sc(C(=O)Nc3cc(OCCN)cc(Oc4ccc(Cl)cc4)c3)cc2c1)S(C)(=O)=O [Example 94, N-(3-(2-aminoethoxy)-5-(4-chlorophenoxy)phenyl)-5-(2-(methylsulfonyl)propan-2-yl)benzo[b]thiophene-2-carboxamide] | > 1.1 µM | > 1.1 µM | 5.2 µM | 13.3 µM | 
8 | CC(C)(c1ccc(Cl)cc1)c1cc(Cl)cc(NC(=O)c2cc3cc(CS(C)(=O)=O)ccc3s2)c1 [Example 21, N-(3-chloro-5-(2-(4-chlorophenyl)propan-2-yl)phenyl)-5-((methylsulfonyl)methyl)benzo[b]thiophene-2-carboxamide] | 0.017 µM | 0.04 µM | 0.11 µM | > 50 µM | 
9 | CS(=O)(=O)Cc1ccc2sc(C(=O)Nc3cc(Cl)cc(Oc4ccc(Cl)cc4)c3)cc2c1 [Example 41, N-(3-chloro-5-(4-chlorophenoxy)phenyl)-5-((methylsulfonyl)methyl)benzo[b]thiophene-2-carboxamide] | 0.063 µM | 0.12 µM | 0.16 µM | > 50 µM | 
10 | C=CCOc1cc(OC(F)(F)F)cc(C(C)(C)c2cc(Cl)cc(NC(=O)c3cc4cc(C(C)(C)S(C)(=O)=O)ccc4s3)c2)c1 [Example 14, N-(3-(2-(3-(allyloxy)-5-(trifluoromethoxy)phenyl)propan-2-yl)-5-chlorophenyl)-5-(2-(methylsulfonyl)propan-2-yl)benzo[b]thiophene-2-carboxamide] |  |  | 0.0083 µM | > 50 µM | 0.01 µM
11 | CC(C)(c1cc(Cl)cc(NC(=O)c2cc3cc(C(C)(C)S(C)(=O)=O)ccc3s2)c1)c1cc(OC2CC2)cc(OC(F)(F)F)c1 [Example 15, N-(3-chloro-5-(2-(3-cyclopropoxy-5-(trifluoromethoxy)phenyl)propan-2-yl)phenyl)-5-(2-(methylsulfonyl)propan-2-yl)benzo[b]thiophene-2-carboxamide] |  |  | 0.0057 µM | > 50 µM | 0.0093 µM
12 | CC(C)(c1ccc2sc(C(=O)Nc3cc(Cl)nc(Oc4cc(Cl)cc(Cl)c4)c3)cc2c1)S(C)(=O)=O [Example 62, N-(2-chloro-6-(3,5-dichlorophenoxy)pyridin-4-yl)-5-(2-(methylsulfonyl)propan-2-yl)benzo[b]thiophene-2-carboxamide] |  |  | 0.02 µM | > 50 µM | 0.034 µM
13 | CC(C)(c1ccc2sc(C(=O)Nc3cc(F)nc(Oc4ccc(Cl)cc4)c3)cc2c1)S(C)(=O)=O [Example 77, N-(2-(4-chlorophenoxy)-6-fluoropyridin-4-yl)-5-(2-(methylsulfonyl)propan-2-yl)benzo[b]thiophene-2-carboxamide] |  |  | 0.1 µM | > 50 µM | 0.052 µM
14 | CC(C)(c1ccc2sc(C(=N)Nc3cc(Cl)cc(Oc4ccc(Cl)cc4)c3)cc2c1)S(C)(=O)=O [Example 103, N-(3-chloro-5-(4-chlorophenoxy)phenyl)-5-(2-(methylsulfonyl)propan-2-yl)benzo[b]thiophene-2-carboximidamide 2,2,2-trifluoroacetate] |  |  | 0.18 µM | > 50 µM | 1.3 µM
15 | CC(C)(c1ccc2sc(C(=O)Nc3cc(Cl)nc(OC4CC5C=CC4C5)c3)cc2c1)S(C)(=O)=O (stereo not drawn) [Example 78, N-(2-(bicyclo[2.2.1]hept-5-en-2-yloxy)-6-chloropyridin-4-yl)-5-(2-(methylsulfonyl)propan-2-yl)benzo[b]thiophene-2-carboxamide] |  |  | 0.05 µM | > 50 µM | 0.2 µM
16 | CC(C)COc1cc(OC(F)(F)F)cc(C(C)(C)c2cc(Cl)cc(NC(=O)c3cc4cc(C(C)(C)S(C)(=O)=O)ccc4s3)c2)c1 [Example 11, N-(3-chloro-5-(2-(3-isobutoxy-5-(trifluoromethoxy)phenyl)propan-2-yl)phenyl)-5-(2-(methylsulfonyl)propan-2-yl)benzo[b]thiophene-2-carboxamide] |  |  | 0.0021 µM | > 50 µM | 0.011 µM
17 | O=C(Nc1cc(Cl)nc(Oc2ccc(Cl)cc2)c1)c1cc2cc(C3CCCCS3(=O)=O)ccc2s1 (stereo not drawn) [Example 74, N-(2-chloro-6-(4-chlorophenoxy)pyridin-4-yl)-5-(1,1-dioxidotetrahydro-2H-thiopyran-2-yl)benzo[b]thiophene-2-carboxamide] |  |  | 0.12 µM | > 50 µM | 0.61 µM
18 | Cn1cccc1C(C)(C)c1cc(Cl)cc(NC(=O)c2cc3cc(C(C)(C)S(C)(=O)=O)ccc3s2)c1 [Example 31, N-(3-chloro-5-(2-(1-methyl-1H-pyrrol-2-yl)propan-2-yl)phenyl)-5-(2-(methylsulfonyl)propan-2-yl)benzo[b]thiophene-2-carboxamide] |  |  | 0.0025 µM | > 50 µM | 0.24 µM
19 | CC(C)(c1ccc(Cl)cc1)c1cc(Cl)cc(NC(=O)c2cc3cc(CS(C)(=N)=O)ccc3s2)c1 (stereo not drawn) [Example 36, N-(3-chloro-5-(2-(4-chlorophenyl)propan-2-yl)phenyl)-5-((S-methylsulfonimidoyl)methyl)benzo[b]thiophene-2-carboxamide] |  |  | 0.064 µM | 42.1 µM | 0.25 µM
20 | Cn1nccc1Oc1cc(NC(=O)c2cc3cc(C(C)(C)S(C)(=O)=O)ccc3s2)cc(Cl)n1 [Example 110, N-(2-chloro-6-((1-methyl-1H-pyrazol-5-yl)oxy)pyridin-4-yl)-5-(2-(methylsulfonyl)propan-2-yl)benzo[b]thiophene-2-carboxamide] |  |  | 0.53 µM | 44.8 µM | 1.2 µM
21 | CC(C)(c1ccc2sc(C(=O)Nc3cc(Cl)nc(Oc4ccc(F)cc4)c3)cc2c1)S(C)(=O)=O [Example 68, N-(2-chloro-6-(4-fluorophenoxy)pyridin-4-yl)-5-(2-(methylsulfonyl)propan-2-yl)benzo[b]thiophene-2-carboxamide] |  |  | 0.011 µM | > 50 µM | 0.03 µM
